Key:
Assay type in all cases: in vivo
Kochia (Kochia scoparia) [1] = experiment: Test A preemergence; settings: for Plant response rating, Kochia: 125 g ai/ha, preemergence, 0 to 100 scale (0 no effect, 100 complete control); for Kochia plant response rating (0 to 100 scale, 0 is no effect, 100 is complete control): Preemergence, 500 g ai/ha, visual injury approx. 10 d
How it was run: (§1)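 Seeds sprayed preemergence with a directed soil spray, or plants at 2 to 10 cm height and one- to two-leaf stage sprayed postemergence, with test chemicals in a non-phytotoxic solvent mixture containing surfactant, in loam soil–sand blend. Injury rated visually against untreated controls after about 10 d in greenhouse, 0 (no effect) to 100 (complete control).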

[2] = test system: barnyardgrass (Echinochloa crus-galli); experiment: Test A preemergence; settings: for Plant response rating, Barnyardgrass: 125 g ai/ha, preemergence, 0 to 100 scale (0 no effect, 100 complete control); for Barnyardgrass plant response rating (0 to 100 scale, 0 is no effect, 100 is complete control): Preemergence, 500 g ai/ha, visual injury approx. 10 d
How it was run: as §1

[3] = test system: giant foxtail (Setaria faberii); experiment: Test A preemergence; settings: for Plant response rating, Foxtail, Giant: 125 g ai/ha, preemergence, 0 to 100 scale (0 no effect, 100 complete control); for Foxtail, Giant plant response rating (0 to 100 scale, 0 is no effect, 100 is complete control): Preemergence, 500 g ai/ha, visual injury approx. 10 d
How it was run: as §1

[4] = test system: pigweed (Amaranthus retroflexus); experiment: Test A preemergence; settings: for Plant response rating, Pigweed: 125 g ai/ha, preemergence, 0 to 100 scale (0 no effect, 100 complete control); for Pigweed plant response rating (0 to 100 scale, 0 is no effect, 100 is complete control): Preemergence, 500 g ai/ha, visual injury approx. 10 d
[5] = test system: ragweed (common ragweed, Ambrosia elatior); experiment: Test A preemergence; settings: for Ragweed plant response rating (0 to 100 scale, 0 is no effect, 100 is complete control): Preemergence, 500 g ai/ha, visual injury approx. 10 d
How it was run: as §1

[6] = test system: ryegrass, Italian (Italian ryegrass, Lolium multiflorum); experiment: Test A preemergence; settings: for Plant response rating, Ryegrass, Italian: 125 g ai/ha, preemergence, 0 to 100 scale (0 no effect, 100 complete control); for Ryegrass, Italian plant response rating (0 to 100 scale, 0 is no effect, 100 is complete control): Preemergence, 500 g ai/ha, visual injury approx. 10 d
How it was run: as §1

[7] = test system: Galium (catchweed bedstraw, Galium aparine); experiment: Test A postemergence; settings: postemergence; for Galium plant response rating: 125 g ai/ha, visual injury rating on 0 to 100 scale (0 no effect, 100 complete control), approx. 10 d; for Plant response rating, Galium: 500 g ai/ha, 0 to 100 scale, 0 no effect, 100 complete control
How it was run: as §1

Kochia (Kochia scoparia) [8] = experiment: Test A postemergence; settings: postemergence; for Kochia plant response rating: 125 g ai/ha, visual injury rating on 0 to 100 scale (0 no effect, 100 complete control), approx. 10 d; for Plant response rating, Kochia: 500 g ai/ha, 0 to 100 scale, 0 no effect, 100 complete control
How it was run: as §1

[9] = test system: barnyardgrass (Echinochloa crus-galli); experiment: Test A postemergence; settings: postemergence; for Barnyardgrass plant response rating: 125 g ai/ha, visual injury rating on 0 to 100 scale (0 no effect, 100 complete control), approx. 10 d; for Plant response rating, Barnyardgrass: 500 g ai/ha, 0 to 100 scale, 0 no effect, 100 complete control
How it was run: as §1

[10] = test system: blackgrass (Alopecurus myosuroides); experiment: Test A postemergence; settings: postemergence; for Blackgrass plant response rating: 125 g ai/ha, visual injury rating on 0 to 100 scale (0 no effect, 100 complete control), approx. 10 d; for Plant response rating, Blackgrass: 500 g ai/ha, 0 to 100 scale, 0 no effect, 100 complete control
How it was run: as §1

corn (Zea mays) = experiment: Test A postemergence; settings: postemergence; for Corn plant response rating: 125 g ai/ha, visual injury rating on 0 to 100 scale (0 no effect, 100 complete control), approx. 10 d; for Plant response rating, Corn: 500 g ai/ha, 0 to 100 scale, 0 no effect, 100 complete control
How it was run: as §1

[11] = test system: giant foxtail (Setaria faberii); experiment: Test A postemergence; settings: postemergence; for Foxtail, Giant plant response rating: 125 g ai/ha, visual injury rating on 0 to 100 scale (0 no effect, 100 complete control), approx. 10 d; for Plant response rating, Foxtail, Giant: 500 g ai/ha, 0 to 100 scale, 0 no effect, 100 complete control
How it was run: as §1

[12] = test system: pigweed (Amaranthus retroflexus); experiment: Test A postemergence; settings: postemergence; for Pigweed plant response rating: 125 g ai/ha, visual injury rating on 0 to 100 scale (0 no effect, 100 complete control), approx. 10 d; for Plant response rating, Pigweed: 500 g ai/ha, 0 to 100 scale, 0 no effect, 100 complete control
How it was run: as §1

[13] = test system: ragweed (common ragweed, Ambrosia elatior); experiment: Test A postemergence; settings: postemergence; for Ragweed plant response rating: 125 g ai/ha, visual injury rating on 0 to 100 scale (0 no effect, 100 complete control), approx. 10 d; for Plant response rating, Ragweed: 500 g ai/ha, 0 to 100 scale, 0 no effect, 100 complete control
How it was run: as §1

[14] = test system: ryegrass, Italian (Italian ryegrass, Lolium multiflorum); experiment: Test A postemergence; settings: postemergence; for Ryegrass, Italian plant response rating: 125 g ai/ha, visual injury rating on 0 to 100 scale (0 no effect, 100 complete control), approx. 10 d; for Plant response rating, Ryegrass, Italian: 500 g ai/ha, 0 to 100 scale, 0 no effect, 100 complete control
How it was run: as §1

[15] = test system: wheat (Triticum aestivum); experiment: Test A postemergence; settings: postemergence; for Wheat plant response rating: 125 g ai/ha, visual injury rating on 0 to 100 scale (0 no effect, 100 complete control), approx. 10 d; for Plant response rating, Wheat: 500 g ai/ha, 0 to 100 scale, 0 no effect, 100 complete control
How it was run: as §1

[16] = test system: barnyardgrass (Echinochloa crus-galli); experiment: Test B flooded paddy test; settings: Flood, 250 g ai/ha; 0 to 100 scale where 0 is no effect and 100 is complete control; 13 to 15 d
How it was run: (§2)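 2-leaf plants; pots flooded 3 cm over soil; cpd added to paddy water; depth held; greenhouse 13–15 d; visual rating vs controls, 0 = no effect, 100 = complete control.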

[17] = test system: ducksalad (Heteranthera limosa); experiment: Test B flooded paddy test; settings: Flood, 250 g ai/ha; 0 to 100 scale where 0 is no effect and 100 is complete control; 13 to 15 d
How it was run: as §2

rice (Oryra sativa) = experiment: Test B flooded paddy test; settings: Flood, 250 g ai/ha; 0 to 100 scale where 0 is no effect and 100 is complete control; 13 to 15 d
How it was run: as §2

[18] = test system: sedge, umbrella (small-flower umbrella sedge, Cyperus difformis); experiment: Test B flooded paddy test; settings: Flood, 250 g ai/ha; 0 to 100 scale where 0 is no effect and 100 is complete control; 13 to 15 d
How it was run: as §2

SMILES	Plant response rating, Kochia (Kochia (Kochia scoparia) [1])	Kochia plant response rating (0 to 100 scale, 0 is no effect, 100 is complete control) (Kochia (Kochia scoparia) [1])	Plant response rating, Barnyardgrass [2]	Barnyardgrass plant response rating (0 to 100 scale, 0 is no effect, 100 is complete control) [2]	Plant response rating, Foxtail, Giant [3]	Foxtail, Giant plant response rating (0 to 100 scale, 0 is no effect, 100 is complete control) [3]	Plant response rating, Pigweed [4]	Pigweed plant response rating (0 to 100 scale, 0 is no effect, 100 is complete control) [4]	Ragweed plant response rating (0 to 100 scale, 0 is no effect, 100 is complete control) [5]	Plant response rating, Ryegrass, Italian [6]	Ryegrass, Italian plant response rating (0 to 100 scale, 0 is no effect, 100 is complete control) [6]	Galium plant response rating [7]	Plant response rating, Galium [7]	Kochia plant response rating (Kochia (Kochia scoparia) [8])	Plant response rating, Kochia (Kochia (Kochia scoparia) [8])	Barnyardgrass plant response rating [9]	Plant response rating, Barnyardgrass [9]	Blackgrass plant response rating [10]	Plant response rating, Blackgrass [10]	Corn plant response rating (corn (Zea mays))	other results
Cc1cc(C2CN(C)C(=O)C2C(=O)Nc2ccccc2F)ccc1F (centres unmarked) [Compound 402]	40	70	90	90	90	90	30	50	70	20	40	50	60	20	60	90	90	50	70	70	Plant response rating, Corn (corn (Zea mays)): 80; Foxtail, Giant plant response rating [11]: 90; Plant response rating, Foxtail, Giant [11]: 90; Pigweed plant response rating [12]: 40; Plant response rating, Pigweed [12]: 50; Ragweed plant response rating [13]: 20; Plant response rating, Ragweed [13]: 60; Ryegrass, Italian plant response rating [14]: 30; Plant response rating, Ryegrass, Italian [14]: 50; Wheat plant response rating [15]: 50; Plant response rating, Wheat [15]: 80; Plant response rating, Barnyardgrass [16]: 100; Plant response rating, Ducksalad [17]: 90; Plant response rating, Rice (rice (Oryra sativa)): 0; Plant response rating, Sedge, Umbrella [18]: 0
Cc1cc(C2CN(C)C(=O)C2C(=O)Nc2cccc(F)c2F)ccc1F (centres unmarked) [Compound 403]	70	80	90	90	90	90	30	60	60	20	70	50	60	40	60	90	90	50	60	70	Plant response rating, Ragweed ([5]; 125 g ai/ha, preemergence, 0 to 100 scale (0 no effect, 100 complete control)): 50; Plant response rating, Corn (corn (Zea mays)): 90; Foxtail, Giant plant response rating [11]: 90; Plant response rating, Foxtail, Giant [11]: 90; Pigweed plant response rating [12]: 50; Plant response rating, Pigweed [12]: 50; Ragweed plant response rating [13]: 0; Plant response rating, Ragweed [13]: 30; Ryegrass, Italian plant response rating [14]: 50; Plant response rating, Ryegrass, Italian [14]: 70; Wheat plant response rating [15]: 70; Plant response rating, Wheat [15]: 80; Plant response rating, Barnyardgrass [16]: 75; Plant response rating, Ducksalad [17]: 100; Plant response rating, Rice (rice (Oryra sativa)): 0; Plant response rating, Sedge, Umbrella [18]: 0

— patent publication US12077503B2, “Substituted cyclic amides and their use as herbicides” (FMC CORPORATION, priority 2015, dated 2024)
